# Experimental data from patent US20220143061A1, “3'3'-CYCLIC DINUCLEOTIDES AND PRODRUGS THEREOF” (INSTITUTE OF ORGANIC CHEMISTRY AND BIOCHEMISTRY ASCR, V.V.I., priority 2019, published 2022).
# Read-outs that look alike come from different tables or passages of the source.
# Assays:
# [1] = target: T1, human wild type STING (WT STING) (Homo sapiens, UniProt Q86WV6, H232R); test: 293T WT STING standard reporter assay; format: cell-based; conditions: no digitonin, 7 hours, ISRE firefly luciferase
# T1 construct: host or cells: 293T cells (ATCC CRL-3216), stably double transfected with pUNO1-hSTING-WT and pGL64.27-4×ISRE
# Source text: Two complementary oligonucleotides of the sequence […] […] […] […] […] The oligonucleotides were mixed in equal molar amounts, hybridized, and cleaved by restriction endonucleases HindIII (cat. #. R0104S, NEB, Ipswich, USA) and BglII (cat. #R0144S, NEB, Ipswich, USA). Ultimately, they were ligated into plasmid pGL4.27 (cat. #E6651, Promega, Madison, USA) linearized with the same enzymes. As result the sequence with four ISRE sites was placed upstream of the minimum promoter of firefly luciferase reporter gene.
# After 5 minutes incubation at room temperature (RT), 250 μL of the mixture was added dropwise to the cells in one well. Cells were incubated 36 hours at 37° C. with 5% CO2, and then detached with 0.05% Trypsin and 0.22 g/L EDTA (both cat. #L0941, Biowest, Riverside, USA).
# Transfected cells were seeded onto poly-D-lysine coated six well plates at density 50,000 cells per 1 cm^2 in DMEM medium with high glucose containing 10% heat inactivated FBS, 30 μg/mL blasticidin (cat. #ant-b1-05, InvivoGen, San Diego, USA), 0.06 mg/ml Penicillin G and 0.1 mg/ml Streptomycin Sulfate (both cat. #. L0018, Biowest, Riverside, USA). The medium was replenished every 3-4 days until visible colonies of cells resistant to blasticidin were formed.
# Blasticidin resistant cells stably expressing WT STING were further transfected with pGL64.27-4×ISRE plasmid following the same procedure as described above. […] Homogeneous culture of stably double transfected cells was prepared by limiting dilution of cells in 96 well plates and wells with cells were selected that originated from a single cell.
# The medium was removed the next day and three-fold serial dilutions of compounds in 100 μl medium were added to the cells. The plates were incubated for 7 hours at 37° C. with 5% CO2. Next 50 μl of the medium was removed from wells, and 30 μl of ONE-Glo™ Luciferase Assay System reagent (cat. #E6120, Promega, Madison, USA) was added to each well. Luminescence was read on Synergy H1 (Biotek, Winooski, USA).
# [2] = test system: peripheral blood mononuclear cell (PBMC); test: Peripheral blood mononuclear cell assay (cytokine levels); format: cell-based; conditions: 1 h with compound, wash, 15 hour incubation, average of one to four donors
# Protocol: Selected compounds were tested in an in vitro peripheral blood mononuclear cell (PBMC) assay. […] Serially diluted tested compounds were added to wells in 50 μl of cultivation medium and cell were incubated with compounds for 1 h at 37° C. with 5% CO2. Plates with cells were then spun 500 g for 5 minutes and medium was removed. Cells were washed twice with the cell culture medium by the use of centrifugation and gently resuspended in 100 μl medium without compounds. After 15 hour incubation at 37° C. with 5% CO2, the cell culture medium was collected and the levels of interferon-alpha (INF-α), interferon-gamma (INF-γ) and tumor necrosis factor-alpha (TNF-α) were determined with ProcartaPlex Assays (ThermoFisher, Waltham, USA) and MAGPIX System (Merck KGaA, Darmstadt, Germany). […] Values reported are an average of runs from one to four donors.
# [3] = 293T wtSTING-FL cells, read-out: 293T WT STING EC50
# [4] = 293T WT STING EC50, 293T wtSTING-FL cells
# T1 sequence (Q86WV6 whole entry H232R): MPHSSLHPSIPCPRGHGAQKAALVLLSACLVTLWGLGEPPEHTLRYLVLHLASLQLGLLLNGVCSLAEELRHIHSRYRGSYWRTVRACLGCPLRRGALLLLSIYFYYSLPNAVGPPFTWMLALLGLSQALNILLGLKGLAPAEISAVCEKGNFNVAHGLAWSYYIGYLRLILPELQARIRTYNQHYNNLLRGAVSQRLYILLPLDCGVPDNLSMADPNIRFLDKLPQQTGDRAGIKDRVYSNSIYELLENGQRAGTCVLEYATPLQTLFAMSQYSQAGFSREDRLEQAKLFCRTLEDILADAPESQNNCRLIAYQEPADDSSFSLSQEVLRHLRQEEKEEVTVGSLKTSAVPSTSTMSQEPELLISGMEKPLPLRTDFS
"EC50 [1, 3] [nM]",Structure (SMILES),EC50 ([2]; read-out: PBMC EC50 IFN-α) [nM],EC50 ([2]; read-out: PBMC EC50 IFN-γ) [nM],EC50 ([2]; read-out: PBMC EC50 TNF-α) [nM],"EC50 [1, 4] [nM]"
30,"CC(C)(C)C(=O)OCOP1(=O)CO[C@H]2[C@@H](F)[C@H](n3cnc4c(N)ncnc43)O[C@@H]2COP(=O)(OCOC(=O)C(C)(C)C)O[C@H]2[C@@H](F)[C@H](n3cnc4c(N)ncnc43)O[C@@H]2CO1 (mixture of isomers) [Compound 41b, {[(1R,6R,8R,9R,10R,16R,18R,19R)-8,18-bis(6-amino-9H-purin-9-yl)-13-{[(2,2-dimethylpropanoyl)oxy]methoxy}-9,19-difluoro-3,13-dioxo-2,4,7,11,14,17-hexaoxa-3λ^5,13λ^5-diphosphatricyclo[14.3.0.0^6,^10]nonadecan-3-yl]oxy}methyl 2,2-dimethylpropanoate]",250,100,40,–
250,"CC(C)OC(=O)OCOP1(=O)CO[C@H]2[C@@H](F)[C@H](n3cnc4c(N)ncnc43)O[C@@H]2COP(=O)(OCOC(=O)OC(C)C)O[C@H]2[C@@H](F)[C@H](n3cnc4c(N)ncnc43)O[C@@H]2CO1 (mixture of isomers) [Compound 42b, {[(1R,6R,8R,9R,10R,16R,18R,19R)-8,18-bis(6-amino-9H-purin-9-yl)-9,19-difluoro-3,13-dioxo-13-({[(propan-2-yloxy)carbonyl]oxy}methoxy)-2,4,7,11,14,17-hexaoxa-3λ^5,13λ^5-diphosphatricyclo[14.3.0.0^6,^10]nonadecan-3-yl]oxy}methyl propan-2-yl carbonate]",2300,1300,1100,–
10,"CCC(C)(C)C(=O)OCOP1(=O)CO[C@H]2[C@@H](F)[C@H](n3cnc4c(N)ncnc43)O[C@@H]2COP(=O)(OCOC(=O)C(C)(C)CC)O[C@H]2[C@@H](F)[C@H](n3cnc4c(N)ncnc43)O[C@@H]2CO1 (mixture of isomers) [Compound 44b, {[(1R,6R,8R,9R,10R,16R,18R,19R)-8,18-bis(6-amino-9H-purin-9-yl)-13-{[(2,2-dimethylbutanoyl)oxy]methoxy}-9,19-difluoro-3,13-dioxo-2,4,7,11,14,17-hexaoxa-3λ^5,13λ^5-diphosphatricyclo[14.3.0.0^6,^10]nonadecan-3-yl]oxy}methyl 2,2-dimethylbutanoate]",200,200,200,–
30,CC1(C(=O)OCOP2(=O)CO[C@H]3[C@@H](F)[C@H](n4cnc5c(N)ncnc54)O[C@@H]3COP(=O)(OCOC(=O)C3(C)CCCCC3)O[C@H]3[C@@H](F)[C@H](n4cnc5c(N)ncnc54)O[C@@H]3CO2)CCCCC1 (mixture of isomers) [Compound 45b],70,20,20,–
2,"CCCCCCCC(=O)OCOP1(=O)CO[C@H]2[C@@H](F)[C@H](n3cnc4c(N)ncnc43)O[C@@H]2COP(=O)(OCOC(=O)CCCCCCC)O[C@H]2[C@@H](F)[C@H](n3cnc4c(N)ncnc43)O[C@@H]2CO1 (mixture of isomers) [Compound 46b, {[(1R,6R,8R,9R,10R,16R,18R,19R)-8,18-bis(6-amino-9H-purin-9-yl)-9,19-difluoro-13-[(octanoyloxy)methoxy]-3,13-dioxo-2,4,7,11,14,17-hexaoxa-3λ^5,13λ^5-diphosphatricyclo[14.3.0.0^6,^10]nonadecan-3-yl]oxy}methyl octanoate]",4,–,1,–
–,"CCCCCCCCCCCC(=O)OCSP1(=O)OC[C@H]2O[C@@H](n3cnc4c(N)ncnc43)[C@H](F)[C@@H]2OCP(=O)(O)OC[C@H]2O[C@@H](n3cnc4c(N)ncnc43)[C@H](F)[C@@H]2O1 (single isomer, unassigned) [Compound 31b]",800,300,500,–
–,"CCCCCCCCCC(=O)OCSP1(=O)OC[C@H]2O[C@@H](n3cnc4c(N)ncnc43)[C@H](F)[C@@H]2OCP(=O)(O)OC[C@H]2O[C@@H](n3cnc4c(N)ncnc43)[C@H](F)[C@@H]2O1 (single isomer, unassigned) [Compound 36a]",2500,1600,1200,–
–,"CCCCCCCCCC(=O)OCSP1(=O)OC[C@H]2O[C@@H](n3cnc4c(N)ncnc43)[C@H](F)[C@@H]2OCP(=O)(O)OC[C@H]2O[C@@H](n3cnc4c(N)ncnc43)[C@H](F)[C@@H]2O1 (single isomer, unassigned) [Compound 36b]",1000,500,800,–
–,"CC(C)(C)C(=O)OCSP1(=O)CO[C@H]2[C@@H](F)[C@H](n3cnc4c(N)ncnc43)O[C@@H]2COP(=O)(SCOC(=O)C(C)(C)C)O[C@H]2[C@@H](F)[C@H](n3cnc4c(N)ncnc43)O[C@@H]2CO1 (single isomer, unassigned) [Compound 39a]",–,–,–,1100
–,"CC(C)(C)C(=O)OCSP1(=O)CO[C@H]2[C@@H](F)[C@H](n3cnc4c(N)ncnc43)O[C@@H]2COP(=O)(SCOC(=O)C(C)(C)C)O[C@H]2[C@@H](F)[C@H](n3cnc4c(N)ncnc43)O[C@@H]2CO1 (single isomer, unassigned) [Compound 39b]",–,–,–,20
–,"CC(C)(C)C(=O)OCSP1(=O)CO[C@H]2[C@@H](F)[C@H](n3cnc4c(N)ncnc43)O[C@@H]2COP(=O)(SCOC(=O)C(C)(C)C)O[C@H]2[C@@H](F)[C@H](n3cnc4c(N)ncnc43)O[C@@H]2CO1 (single isomer, unassigned) [Compound 39c]",–,–,–,30
–,"CC(C)OC(=O)OCSP1(=O)CO[C@H]2[C@@H](F)[C@H](n3cnc4c(N)ncnc43)O[C@@H]2COP(=O)(SCOC(=O)OC(C)C)O[C@H]2[C@@H](F)[C@H](n3cnc4c(N)ncnc43)O[C@@H]2CO1 (single isomer, unassigned) [Compound 40b]",–,–,–,1200
–,"CC(C)OC(=O)OCSP1(=O)CO[C@H]2[C@@H](F)[C@H](n3cnc4c(N)ncnc43)O[C@@H]2COP(=O)(SCOC(=O)OC(C)C)O[C@H]2[C@@H](F)[C@H](n3cnc4c(N)ncnc43)O[C@@H]2CO1 (single isomer, unassigned) [Compound 40c]",–,–,–,3900
40,"CC(C)(C)C(=O)OCOP1(=O)CO[C@H]2[C@@H](F)[C@H](n3cnc4c(N)ncnc43)O[C@@H]2COP(=O)(OCOC(=O)C(C)(C)C)O[C@H]2[C@@H](F)[C@H](n3cnc4c(N)ncnc43)O[C@@H]2CO1 (single isomer, unassigned) [Compound 41a]",–,–,–,–
8100,"CC(C)OC(=O)OCOP1(=O)CO[C@H]2[C@@H](F)[C@H](n3cnc4c(N)ncnc43)O[C@@H]2COP(=O)(OCOC(=O)OC(C)C)O[C@H]2[C@@H](F)[C@H](n3cnc4c(N)ncnc43)O[C@@H]2CO1 (single isomer, unassigned) [Compound 42a]",–,–,–,–
–,"Nc1nc2c(ncn2[C@@H]2O[C@@H]3COP(=O)(O)O[C@H]4[C@@H](O)[C@H](n5cnc6c(N)ncnc65)O[C@@H]4COP(=O)(O)O[C@@H]2[C@@H]3O)c(=O)[nH]1 [2′3′-cGAMP, reference compound]",300000,164000,210000,–
–,"CCCCCCCCCCCCOC(=O)OCSP1(=O)OC[C@H]2O[C@@H](n3cnc4c(N)ncnc43)[C@H](F)[C@@H]2OCP(=O)(O)OC[C@H]2O[C@@H](n3cnc4c(N)ncnc43)[C@H](F)[C@@H]2O1 (stereo partly drawn) [Compound 34b, (((2R,3R,3aR,7aR,9R,10R,10aR,15aR)-2,9-bis(6-amino-9H-purin-9-yl)-3,10-difluoro-13-hydroxy-5,13-dioxidodecahydro-2H-difuro[3,2-d:3′,2′-k][1,3,7,10]tetraoxa[2,8]diphosphacyclotridecin-5-yl)thio)methyl dodecyl carbonate]",1300,500,700,–
